Biological target: Hepatocyte growth factor receptor (Homo sapiens, UniProt P08581)
Assay: Inhibition of N-terminal 6His-tagged human recombinant c-MET expressed in baculovirus infected Sf21 cells using poly Ala-Glu-Lys-Tyr (6:2:5:1) as substrate after 3 hrs by scintillation counting in presence of [33P]-ATP
Details: not given

Hepatocyte growth factor receptor, sequence (P08581 whole entry): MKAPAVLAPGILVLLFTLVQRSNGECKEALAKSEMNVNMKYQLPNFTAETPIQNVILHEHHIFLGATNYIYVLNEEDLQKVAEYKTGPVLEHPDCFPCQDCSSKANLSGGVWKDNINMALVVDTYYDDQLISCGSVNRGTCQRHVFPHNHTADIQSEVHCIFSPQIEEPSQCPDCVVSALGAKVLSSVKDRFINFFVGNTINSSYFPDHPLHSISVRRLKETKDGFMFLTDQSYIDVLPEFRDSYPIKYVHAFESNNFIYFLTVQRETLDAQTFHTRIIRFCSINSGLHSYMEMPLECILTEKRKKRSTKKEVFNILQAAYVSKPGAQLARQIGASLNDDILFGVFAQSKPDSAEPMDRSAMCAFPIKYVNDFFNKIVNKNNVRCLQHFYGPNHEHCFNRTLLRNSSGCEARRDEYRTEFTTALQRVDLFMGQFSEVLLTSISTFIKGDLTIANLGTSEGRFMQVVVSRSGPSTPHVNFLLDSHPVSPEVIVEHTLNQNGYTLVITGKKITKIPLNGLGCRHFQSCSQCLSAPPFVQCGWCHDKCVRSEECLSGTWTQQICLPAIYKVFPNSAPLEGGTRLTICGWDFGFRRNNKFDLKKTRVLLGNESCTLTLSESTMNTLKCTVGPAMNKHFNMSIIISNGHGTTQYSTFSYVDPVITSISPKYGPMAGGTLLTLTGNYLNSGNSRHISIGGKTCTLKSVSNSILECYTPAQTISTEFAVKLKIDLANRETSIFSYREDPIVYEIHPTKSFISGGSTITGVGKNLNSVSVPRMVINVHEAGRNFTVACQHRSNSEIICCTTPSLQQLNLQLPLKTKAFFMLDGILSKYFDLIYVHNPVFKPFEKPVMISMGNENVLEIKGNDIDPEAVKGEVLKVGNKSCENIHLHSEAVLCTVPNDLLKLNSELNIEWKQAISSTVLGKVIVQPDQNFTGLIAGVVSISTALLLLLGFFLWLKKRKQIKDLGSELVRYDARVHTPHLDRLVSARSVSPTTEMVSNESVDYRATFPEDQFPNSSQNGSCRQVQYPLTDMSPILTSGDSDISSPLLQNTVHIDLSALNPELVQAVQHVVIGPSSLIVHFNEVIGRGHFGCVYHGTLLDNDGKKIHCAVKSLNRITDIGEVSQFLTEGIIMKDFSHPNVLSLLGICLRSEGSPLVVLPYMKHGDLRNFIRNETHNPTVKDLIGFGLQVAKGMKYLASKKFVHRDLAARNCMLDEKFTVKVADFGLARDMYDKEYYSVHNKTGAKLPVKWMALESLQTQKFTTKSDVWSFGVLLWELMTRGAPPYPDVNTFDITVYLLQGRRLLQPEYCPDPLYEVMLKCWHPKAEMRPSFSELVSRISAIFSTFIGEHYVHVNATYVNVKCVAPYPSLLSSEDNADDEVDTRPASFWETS

Molecule `Cc1ccc2c(c1)oc(=O)n2Cc1cccc(NC(=O)OCCCN2CCOCC2)c1` has an IC50 of 1600 nM.

Tested on: not listed separately
Assay: cells
Details: Homo sapiens, EBC-1, 72 h
Description: Cytotoxicity against human EBC1 cells assessed as inhibition of cell proliferation after 72 hrs by sulforhodamine B assay

First: CN1CCN(CCCOC(=O)Nc2cccc(Cn3nc(-n4ccc5ccc(F)cc54)ccc3=O)c2)CC1
Second: Cc1ccc2c(c1)oc(=O)n2Cc1cccc(NC(=O)OCCCN2CCOCC2)c1
The IC50 of the first is 2.4-fold lower: 672 nM for the first, 1600 nM for the second. The first is the more potent here.

`COC(=O)c1ccc2c(c1)oc(=O)n2CCOc1ccnc2cc(OC)ccc12` and `COC(=O)c1ccc2oc(=O)n(CCOc3ccnc4cc(OC)ccc34)c2c1` cannot be ordered by IC50: > 500 nM for the first, > 500 nM for the second.

First: COc1ccc2c(OCCn3c(=O)oc4cc(N)ccc43)ccnc2c1
Second: COc1ccc2c(OCCn3c(=O)oc4cc(F)ccc43)ccnc2c1
The IC50 of the first is lower: 160 nM for the first, > 500 nM for the second. The first is the more potent here.

Going from `Cc1ccc2c(c1)oc(=O)n2CCOc1ccnc2cc(OCCCN3CCN(C)CC3)ccc12` to `Cc1ccc2c(c1)oc(=O)n2CCOc1ccnc2cc(OCCCN3CCCC3)ccc12`, the IC50 rises from 170 nM to > 500 nM.

First: Cc1ccc2c(c1)oc(=O)n2CCOc1ccnc2cc(OCCCCN3CCOCC3)ccc12
Second: Cc1ccc2c(c1)oc(=O)n2CCOc1ccnc2cc(OCCCN3CCOCC3)ccc12
The IC50 of the first is 1.9-fold higher: 330 nM for the first, 170 nM for the second. The second is the more potent here.

`COCCOc1ccc2c(OCCn3c(=O)oc4cc(C)ccc43)ccnc2c1` and `COc1ccc2c(OCCn3c(=O)oc4cc(C)ccc43)ccnc2c1` cannot be ordered by IC50: > 500 nM for the first, > 500 nM for the second.

First: Cc1ccc2c(c1)oc(=O)n2CCOc1ccnc2cc(NCCCN3CCOCC3)ccc12
Second: Cc1ccc2c(c1)oc(=O)n2CCOc1ccnc2cc(OCCN3CCOCC3)ccc12
The IC50 of the first is 2.1-fold lower: 58 nM for the first, 120 nM for the second. The first is the more potent here.

`COc1ccc2c(OCCn3c(=O)oc4ccc(C)cc43)ccnc2c1` and `COc1ccc2c(OCCn3c(=O)oc4ccc(F)cc43)ccnc2c1` cannot be ordered by IC50: > 500 nM for the first, > 500 nM for the second.

Going from `COc1ccc2c(OCCn3c(=O)oc4ccc(-c5cnn(C)c5)cc43)ccnc2c1` to `COc1ccc2c(OCCn3c(=O)oc4cc(-c5cnn(C)c5)ccc43)ccnc2c1`, the IC50 falls from > 500 nM to 100 nM. The second is the more potent here.

First: Cn1cc(-c2ccc3c(OCCn4c(=O)oc5cc(-c6cnn(C)c6)ccc54)ccnc3c2)cn1
Second: Cc1ccc2c(c1)oc(=O)n2CCOc1ccnc2cc(-c3cnn(C)c3)ccc12
The IC50 of the first is 7-fold lower: 5 nM for the first, 35 nM for the second. The first is the more potent here.

`COc1ccc2c(OCCn3c(=O)oc4cc(N5CCOCC5)ccc43)ccnc2c1` and `COc1ccc2c(OCCn3c(=O)oc4cc(OC)ccc43)ccnc2c1` cannot be ordered by IC50: > 500 nM for the first, > 500 nM for the second.

Molecule `C[C@@H](Oc1cc(-c2cnn(C3CCNCC3)c2)cnc1N)c1c(Cl)ccc(F)c1Cl` [CRIZOTINIB] has an IC50 of 44 nM.

Source: ChEMBL document CHEMBL3784915, “Design and synthesis of novel benzo[d]oxazol-2(3H)-one derivatives bearing 7-substituted-4-enthoxyquinoline moieties as c-Met kinase inhibitors” (Eur J Med Chem, 2016)
